Experimental data as given in US20250066326A1, “BCL6 DEGRADERS AND USES THEREOF” (Dana-Farber Cancer Institute, Inc., priority 2021, published 2025).

Legend:
BCL6 [1] = molecular target: T1, BCL6 (Homo sapiens, UniProt P41182); assay: BCL6 degradation immunoblot in DB cells; format: cell-based; details: tested at 0.1, 1.0, 10 μM for 4 hours, compared to BI-3812 and BI-3802
T1 construct: endogenous in cells; host or cells: VAL cells
Description: (§1) Inclusive of Examples 8-14, VAL cells were seeded in 6-well plates at 1×10^6 cells/well and treated with indicated concentration and time point for the indicated compounds. Total protein was extracted from cells using the RIPA buffer (Abcam) supplemented with the Halt Protease Inhibitor Cocktail (Millipore-Sigma). Samples were loaded to Invitrogen Bolt Bis -Tris Plus gels (ThermoFisher Scientific) and transferred to Invitrolon PVDF membranes (ThermoFisher Scientific) using the Invitrogen Bolt wet-gel Transfer Device. Immunodetection was performed with standard techniques. The following primary and secondary antibodies were used: anti-BCL6, β-actin, H3 (Cell Signaling Technology), and IRDye secondary antibodies at the concentration recommended by the manufacturer.
DB cells were treated with compounds at serial concentrations of 0.1 μM, 1.0 μM, and 10 μM for 4 hours.

BCL6 [2] = molecular target: T1, BCL6; assay: BCL6 degradation immunoblot in VAL cells; format: cell-based
Description: as §1
VAL cells were treated with compounds at serial concentrations of 0.1 μM, 1.0 μM, and 10 μM for 4 hours.
VAL cells were treated with 1 at serial concentrations of 0.001 μM, 0.010 μM, 0.100 μM, 1.0 μM, and 10 μM for 4 hours.
VAL cells were treated with 5 at serial concentrations of 0.001 μM, 0.010 μM, 0.100 μM, 1.0 μM, and 10 μM for 4 hours.
VAL cells were treated with 1 at 0.1 μM for 1, 2, 4, 8, and 24 hours.
VAL cells were treated with 6 at serial concentrations of 0.1 μM, 0.3 μM, 1.0 μM, 3.0 μM and 10 μM for 4 hours.

[3] = tested at 0.1, 1.0, 10 μM for 4 hours, compared to BI-3812 and BI-3802
[4] = tested at 0.001, 0.010, 0.100, 1.0, 10 μM for 4 hours

Compound	concentration at which compound degrades BCL6 (immunoblot) (BCL6 [1])	concentration at which compound degrades BCL6 (immunoblot) (BCL6 [2]; [3])	concentration at which compound degrades BCL6 (immunoblot) (BCL6 [2]; tested at 0.1, 0.3, 1.0, 3.0, 10 μM for 4 hours)	concentration at which compound degrades BCL6 (immunoblot) (BCL6 [2]; [4])	time in which BCL6 is degraded (immunoblot) (BCL6 [2]; 0.1 μM (100 nM), time points 1, 2, 4, 8, 24 hours)
CNC(=O)COc1cc2cc(Nc3nc(N4CCC(C(=O)NCCOCCNc5cccc6c5C(=O)N(C5CCC(=O)NC5=O)C6=O)CC4)ncc3Cl)cc(OC)c2n(C)c1=O (centres unmarked) [compound 4, 1-(5-chloro-4-((8-methoxy-1-methyl-3-(2-(methylamino)-2-oxoethoxy)-2-oxo-1,2-dihydroquinolin-6-yl)amino)pyrimidin-2-vl)-N-(2-(2-((2-(2,6-dioxopiperidin-3-yl)-1,3-dioxoisoindolin-4-yl)amino)ethoxy)ethyl)piperidine-4-carboxamide]	1000 nM	100 nM			
CNC(=O)COc1cc2cc(Nc3nc(N4CCC(C(=O)NCCCCCCCCNc5cccc6c5C(=O)N(C5CCC(=O)NC5=O)C6=O)CC4)ncc3Cl)cc(OC)c2n(C)c1=O (centres unmarked) [compound 1, 1-(5-chloro-4-((8-methoxy-1-methyl-3-(2-(methylamino)-2-oxoethoxy)-2-oxo-1,2-dihydroquinolin-6-yl)amino)pyrimidin-2-yl)-N-(8-((2-(2,6-dioxopiperidin-3-yl)-1,3-dioxoisoindolin-4-yl)amino)octyl)piperidine-4-carboxamide]		100 nM		1.0 nM	less than 1 hour
CNC(=O)COc1cc2cc(Nc3nc(N4CCC(C(=O)NCCCCNc5cccc6c5C(=O)N(C5CCC(=O)NC5=O)C6=O)CC4)ncc3Cl)cc(OC)c2n(C)c1=O (centres unmarked) [compound 3, 1-(5-chloro-4-((8-methoxy-1-methyl-3-(2-(methylamino)-2-oxoethoxy)-2-oxo-1,2-dihydroquinolin-6-yl)amino)pyrimidin-2-v1)-N-(4-((2-(2,6-dioxopiperidin-3-yl)-1,3-dioxoisoindolin-4-yl)amino)butyl)piperidine-4-carboxamide]	100 nM	100 nM			

More lines, now with the values ahead:

concentration at which compound degrades BCL6 (immunoblot) (BCL6 [1])	concentration at which compound degrades BCL6 (immunoblot) (BCL6 [2]; [3])	concentration at which compound degrades BCL6 (immunoblot) (BCL6 [2]; tested at 0.1, 0.3, 1.0, 3.0, 10 μM for 4 hours)	concentration at which compound degrades BCL6 (immunoblot) (BCL6 [2]; [4])	time in which BCL6 is degraded (immunoblot) (BCL6 [2]; 0.1 μM (100 nM), time points 1, 2, 4, 8, 24 hours)	Compound
		300 nM			CNC(=O)COc1cc2cc(Nc3nc(N4CCC(C(=O)NCCCCCCNC(=O)COc5cccc6c5C(=O)N(C5CCC(=O)NC5=O)C6=O)CC4)ncc3Cl)cc(OC)c2n(C)c1=O (centres unmarked) [compound 6, 1-(5-chloro-4-((8-methoxy-1-methyl-3-(2-(methylamino)-2-oxoethoxy)-2-oxo-1,2-dihydroquinolin-6-yl)amino)pyrimidin-2-vl)-N-(6-(2-((2-(2,6-dioxopiperidin-3-yl)-1,3-dioxoisoindolin-4-yl)oxy)acetamido)hexyl)piperidine-4-carboxamide]
1000 nM	100 nM		10 nM		CNC(=O)COc1cc2cc(Nc3nc(N4CCC(NC(=O)CCCCCCCCCCCNc5cccc6c5C(=O)N(C5CCC(=O)NC5=O)C6=O)CC4)ncc3Cl)cc(OC)c2n(C)c1=O (centres unmarked) [compound 5, N-(1-(5-chloro-4-((8-methoxy-1-methyl-3-(2-(methylamino)-2-oxoethoxy)-2-oxo-1,2-dihydroquinolin-6-yl)amino)pyrimidin-2-yl)piperidin-4-yl)-12-((2-(2,6-dioxopiperidin-3-yl)-1,3-dioxoisoindolin-4-yl)amino)dodecanamide]
